Experimental data: patent US6287840A (Axys Pharmaceuticals, Inc., priority 1999, dated 2001)
Structures can show the parent of a compound that is named as a salt.

Key:
[1] = target: T1, Cathepsin L from rat liver (Rattus norvegicus, UniProt P07154); experiment: Inhibition of cathepsin L, Z-Phe-Arg-AMC fluorescence progress curves; type: biochemical; settings: for k/KI (kirr/KI): values without asterisk
T1 construct: Cathepsin L from rat liver; from tissue; host or cells: rat liver
Procedure: (§1) Stock solutions of the various inhibitors (10 mM) were made in DMF; dilutions were made in the same solvent. Cathepsin L from rat liver, (see Mason et al., Biochem. J. 226:233-241 (1985)) was approximately 1 nM in the assay. The assay buffer contained 50 mM phosphate at pH 6:2, 2.5 mM dithiothreitol (DTT), and 2.5 mM ethylenediaminetetraacetic acid (EDTA). The substrate for cathepsin L was 5 μM Z-Phe-Arg-AMC (carbobenzyloxyphenylalanylarginylaminomethylcoumarin). The assays were initiated at 25° C. by addition of enzyme to 2 mL of assay buffer containing the substrate and the various inhibitors (30-0.001 μM). The increase in fluorescence at 460 nm with excitation at 380 nm was followed with time. Inactivation of cathepsin L was indicated by a downward curve in the increase in fluorescence with time. In the absence of inhibitors, the enzymatic production of free AMC was linear throughout the time course of inactivation examined. Data points were collected over at least 3 half-times of inactivation. The inhibition progress curves were analyzed using non-linear curve fitting software to compute the kobs values. Approximate second-order inactivation constants (kobs /[I]) were calculated for all compounds. For selected inhibitors, plots of 1/[I] vs. 1/kobs yielded the true constants kirr, KI, and kirr/KI and were corrected for the presence of substrate by dividing KI (app.) by (1+[S]/Km).

cruzain, from T. cruzi = cruzain, from T. cruzi (Trypanosoma cruzi, UniProt P25779); experiment: Inhibition of cruzain, as for cathepsin L; type: biochemical; settings: for k/KI (kirr/KI): values without asterisk; for kinact/KI: pH 6.2, read-out: kobs /[I]* (approximate second-order inactivation constant); for kinact/KI / kobs /[I]* (approximate second-order inactivation constant): values marked *
Procedure: as §1
Inhibition of cruzain, from T. cruzi, (see Eakin et at., J. Biol. Chem. 268(9): 6115-6118 (1993)) proceeded exactly as for cathepsin L, outlined above, using an enzyme concentration of 1 nM.

[2] = target: T2, Cathepsin B from human placenta (Homo sapiens, UniProt P07858); experiment: Inhibition of cathepsin B, Z-Arg-Arg-AMC fluorescence progress curves; type: biochemical; settings: for k/KI (kirr/KI): values without asterisk
T2 construct: Cathepsin B from human placenta, obtained from Sigma; purchased Sigma; host or cells: human placenta (tissue)
Procedure: Stock solutions of the various inhibitors (10 mM) were made in DMF; dilutions were made in the same solvent. Cathepsin B from human placenta, obtained from Sigma, was approximately 10 nM in the assay. The assay buffer contained 50 mM phosphate at pH 6.2, 2.5 mM dithiothreitol (DTT), and 2.5 mM ethylenediaminetetraacetic acid (EDTA). The substrate for cathepsin B was 50 μM Z-Arg-Arg-AMC (carbobenzyloxyarginylarginylaminomethylcoumarin). The assays were initiated at 25° C. by addition of enzyme to 2 mL of assay buffer containing the substrate and the various inhibitors (30-0.001 (μM). The increase in fluorescence at 460 nm with excitation at 380 nm was followed with time, and the assay was linear throughout the range observed. Inactivation of cathepsin B was indicated by a downward curve in the increase in fluorescence with time. In the absence of inhibitors, the enzymatic production of free AMC was linear throughout the time course of inactivation examined. Data points were collected over at least 3 half-times of inactivation, and in duplicate. The inhibition progress curves were analyzed using non-linear curve fitting software to compute the kobs values. Approximate second-order inactivation constants (kobs /[I]) were calculated for all compounds. For selected inhibitors, plots of 1/[I] vs. 1/kobs yielded the true constants kirr, KI, and kirr /KI, and were corrected for the presence of substrate by dividing KI (app.) by {1+[S]/Km }.

calpain = experiment: Inhibition (inactivation) of calpain, Suc-Leu-Tyr-AMC; type: biochemical; settings: pH 7.5, 5 mM CaCl2, 25° C.; for kobs /[I]*: values marked * (or %); for k/KI (kirr/KI): values without asterisk
Procedure: The inhibitors were tested against calpain at 1 or 2% as for the other enzymes. The reaction conditions were 50 mM Tris, pH 7.5, 5 mM CaCl2, 2.5 mM DTT, assayed at 25° C. The substrate was 100 μM Suc-Leu-Tyr-AMC.

[3] = system: Trypanosoma cruzi amastigote infected macrophages; experiment: In vitro antiprotozoal activity, Trypanosoma cruzi; type: cell-based; settings: Trypanosoma cruzi, Macrophage, read-out: percentage inhibition, T. cruzi
Procedure: (§2) In this table, the in vitro antiprotozoal activities of the indicated compounds were measured as percentage inhibition of Leishmania donovani amastigote infecteda mouse peritoneal macrophages, Trypanosoma cruzi amastigote infected macrophages, and Trypanosoma brucei extracellular bloodstream forms.

[4] = system: Leishmania donovani amastigote infected mouse peritoneal macrophages; experiment: In vitro antiprotozoal activity, Leishmania donovani; type: cell-based; settings: Leishmania donovani, Peritoneal macrophage, read-out: percentage inhibition, L. donovani
Procedure: as §2

[5] = system: Trypanosoma brucei extracellular bloodstream forms; experiment: In vitro antiprotozoal activity, Trypanosoma brucei; type: cell-based; settings: Trypanosoma brucei, read-out: percentage inhibition, T. brucei
Procedure: as §2

[6] = system: human malarial parasite Plasmodium falciparum; experiment: In vitro protease activity of malarial parasite, substrate Z-Phe-Arg-AMC; type: biochemical; settings: cells printed in μM; read-out: P. falciparum IC50 (human)
Source text: The following table summarizes the comparative IC50 values for selected cysteine protease inhibitors against the human malarial parasite Plasmodium falciparum and the mouse malarial parasite Plasmodium vinckei. The substrate used to measure in vitro protease activity was Z-Phe-Arg-AMC.

Cloned cathepsin S = target: T3, Cloned cathepsin S (Homo sapiens, UniProt P25774); experiment: Inhibition of cathepsin S, Z-Val-Val-Arg-AMC fluorescence progress curves; type: biochemical
T3 construct: made in house
Procedure: Stock solutions of the various inhibitors (10 mM) were made in DMF; dilutions were made in the same solvent. Cloned cathepsin S, (see Bromme et al., J. Biol. Chem. 268(&): 4832-4838 (1993)) was less than 1 nM in the assay. The assay buffer contained 100 mM phosphate at pH 6.5, 0.01% Triton, 2.5 mM dithiothreitol (DTT), and 2.5 mM ethylenediaminetetraacetic acid (EDTA). The substrate for cathepsin S was 10 μM Z-Val-Val-Arg-AMC (carbobenzyloxyvalinylvalinylarginylaminomethylcoumarin). The assays were initiated at 25° C. by addition of enzyme to 2 mL of assay buffer containing the substrate and the various inhibitors (30-0.001 μM). The increase in fluorescence at 460 nm with excitation at 380 nm was followed with time. Inactivation of cathepsin S was indicated by a downward curve in the increase in fluorescence with time. In the absence of inhibitors, the enzymatic production of free AMC was linear throughout the time course of inactivation examined. Data points were collected over at least 3 half-times of inactivation. The inhibition progress curves were analyzed using non-linear curve fitting software to compute the kobs values. Approximate second-order inactivation constants (kobs /[I]) were calculated for all compounds. For selected inhibitors, plots of 1/[I] vs. 1/kobs yielded the true constants kirr, KI, and kirr /KI, and were corrected for the presence of substrate by dividing KI (app.) by {1+[S]/Km}.

T1 sequence (P07154 114-288 limits assumed): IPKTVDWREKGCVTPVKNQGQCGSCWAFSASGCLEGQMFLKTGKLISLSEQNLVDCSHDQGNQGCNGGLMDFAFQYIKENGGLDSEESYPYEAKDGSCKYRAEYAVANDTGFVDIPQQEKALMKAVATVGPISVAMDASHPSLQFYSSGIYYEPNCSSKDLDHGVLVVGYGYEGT
T1 sequence (P07154 291-334 limits assumed): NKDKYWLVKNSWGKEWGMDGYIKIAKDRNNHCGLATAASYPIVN
Chain of cruzain, from T. cruzi (P25779 123-337 limits assumed): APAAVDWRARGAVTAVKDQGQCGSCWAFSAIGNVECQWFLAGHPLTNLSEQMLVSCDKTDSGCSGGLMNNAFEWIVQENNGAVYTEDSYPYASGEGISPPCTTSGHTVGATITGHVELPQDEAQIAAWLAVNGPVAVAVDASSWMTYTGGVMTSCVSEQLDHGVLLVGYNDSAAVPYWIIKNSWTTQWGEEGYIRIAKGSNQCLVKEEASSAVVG
T3 sequence (P25774 115-331): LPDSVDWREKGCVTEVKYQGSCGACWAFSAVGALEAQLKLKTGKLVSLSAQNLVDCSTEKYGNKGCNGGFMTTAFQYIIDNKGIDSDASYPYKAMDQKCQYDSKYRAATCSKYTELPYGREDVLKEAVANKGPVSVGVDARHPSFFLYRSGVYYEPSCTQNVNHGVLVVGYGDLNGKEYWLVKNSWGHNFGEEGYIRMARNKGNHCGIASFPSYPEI

Compound: CCCC[C@@H](/C=C/S(=O)(=O)c1ccccc1)NC(=O)[C@H](CC(C)C)NC(=O)[C@H](CC(C)C)NC(C)=O [Ac-Leu-Leu-NleVSPh, (S)-(E)-3-(acetylleucylleucyl)amino-1-phenylsulfonyl-1-heptene]
- k/KI (kirr/KI) ([1]; 25° C., pH 6.2): 930,000 M^-1 sec^-1
- k/KI (kirr/KI) (cruzain, from T. cruzi): 133,000 M^-1 sec^-1
- k/KI (kirr/KI) ([2]; 25° C., pH 6.2): 0 M⁻¹ s⁻¹
- kobs /[I]* (calpain): 6,900 M^-1 sec^-1

Compound: CC(C)(C)OC(=O)C[C@@H](/C=C/S(C)(=O)=O)NC(=O)OC(C)(C)C [Boc-Asp(O-tBu)VSMe, (S)-(E)-3-tert-butoxycarbonylamino-4-tert-butoxycarbonyl-1-methylsulfonyl-1-butene]
- k/KI (kirr/KI) ([1]; 25° C., pH 6.2): 0 M⁻¹ s⁻¹
- kinact/KI (cruzain, from T. cruzi): 800 M⁻¹ s⁻¹
- inhibition at 3 µM [3]: 0%
- inhibition at 10 µM [3]: 0%
- inhibition at 30 µM [3]: 0%
- inhibition at 90 µM [3]: 9.9%
- inhibition at 3 µM ([4]; 3 uM): 0%
- inhibition at 10 µM [4]: 0%
- inhibition at 30 µM [4]: 13.4%
- inhibition at 90 µM [4]: 12.9%
- k/KI (kirr/KI) ([2]; 25° C., pH 6.2): 0 M⁻¹ s⁻¹
- inhibition at 3 µM [5]: 0%
- inhibition at 10 µM [5]: 0%
- inhibition at 30 µM [5]: 0%
- inhibition at 90 µM [5]: 0%
- k/KI (kirr/KI) (calpain): 0 M⁻¹ s⁻¹

Compound: CC(N)C(=O)NC(C=CS(C)(=O)=O)Cc1ccccc1 (centres unmarked) [HCl.Ala-PheVSMe]
- IC50 [6]: > 100 µM

Compound: (S)-(E)-3-(4-morpholinecarbonylphenylalanyl)amino-1-methylsulfonyl-4-phenyl-1-butene [Mu-Phe-PheVSMe]
- kobs /[I]* (approximate second-order inactivation constant) ([1]; values marked *, 25° C., pH 6.2): 100 M⁻¹ s⁻¹
- kobs /[I]* (calpain): 260 M⁻¹ s⁻¹
- IC50 [6]: 2 µM

Compound: CC(C)C[C@H](NC(=O)OCc1ccccc1)C(=O)N[C@@H](CC(C)C)C(=O)N[C@H](/C=C/S(=O)(=O)c1ccccc1)Cc1ccc(O)cc1 [Z-Leu-Leu-TyrVSPh, (S)-(E)-3-(benzyloxycarbonylleucylleucyl)amino-4-(4-hydroxyphenyl)-1-phenylsulfonyl-1-butene]
- kinact/KI (cruzain, from T. cruzi): 45000 M⁻¹ s⁻¹
- kinact/KI ([2]; values marked *, 25° C., pH 6.2, read-out: kobs /[I]* (approximate second-order inactivation constant)): 730 M⁻¹ s⁻¹
- kinact/KI (Cloned cathepsin S; values marked *, 25° C., pH 6.5, read-out: kobs /[I]* (approximate second-order inactivation constant)): 280000 M⁻¹ s⁻¹
- kobs /[I]* (calpain): 36,400 M^-1 sec^-1
- k/KI (kirr/KI) (calpain): 24,300 M^-1 sec^-1

Compound: Br.Br.N=C(N)NCCC[C@@H](/C=C/S(=O)(=O)c1ccccc1)NC(=O)[C@H](CCCNC(=N)N)NC(=O)N1CCOCC1 [Mu-Arg-ARgVSPh.2HBr, (S)-(E)-3-(4-morpholinecarbonylarginyl)amino-6-guanidino-1-phenylsulfonyl-1-hexene dihydrobromide]
- kobs /[I]* (approximate second-order inactivation constant) (cruzain, from T. cruzi): 2,100 M^-1 sec^-1
- kirr [2]: 0.040 s⁻¹
- Ki ([2]; corrected for substrate): 150 µM
- k/KI (kirr/KI) ([2]; 25° C., pH 6.2): 26 M⁻¹ s⁻¹
- kobs /[I]* (calpain): < 50 M⁻¹ s⁻¹

Compound: CC(=O)N[C@@H](Cc1ccc(O)cc1)C(=O)N[C@H](C(=O)N[C@@H](C)C(=O)NC(/C=C/S(=O)(=O)c1ccccc1)CC(=O)O)C(C)C (stereo partly drawn) [Ac-Tyr-Val-Ala-AspVSPh, (e)-3-acetyltyrosylvalylalanylamino-4-hydroxycarbonyl-1-phenylsulfonyl-1-butene]
- k/KI (kirr/KI) ([1]; 25° C., pH 6.2): 0 M⁻¹ s⁻¹
- k/KI (kirr/KI) (cruzain, from T. cruzi): 0 M⁻¹ s⁻¹
- k/KI (kirr/KI) (calpain): 0 M⁻¹ s⁻¹

Compound: Cl.NCC(=O)N[C@H](/C=C/S(=O)(=O)c1ccccc1)Cc1ccccc1 [HCl.Gly-Phe-VSPh, (S)-(E)-3-glycylamino-4-phenyl-1-phenylsulfonyl-1-butene hydrochloride]
- inhibition at 3 µM [3]: 0%
- inhibition at 10 µM [3]: 0%
- inhibition at 30 µM [3]: 0.1%
- inhibition at 90 µM [3]: 0%
- inhibition at 10 µM [4]: 0%
- inhibition at 30 µM [4]: 0%
- inhibition at 90 µM [4]: 4.02%
- inhibition at 3 µM [5]: 0%
- inhibition at 10 µM [5]: 0%
- inhibition at 30 µM [5]: 0%
- inhibition at 90 µM [5]: 0%
- kobs /[I]* (calpain): < 50 M⁻¹ s⁻¹

Compound: CC(Cc1ccccc1)(NC(=O)N1CCOCC1)C(=O)N[C@H](/C=C/S(=O)(=O)c1ccccc1)CCc1ccccc1 (mixture of isomers) [Mu-DL-Fam-HphVSPh]
- KI ([1]; corrected for substrate): binds
- k/KI (kirr/KI) ([1]; 25° C., pH 6.2): 0 M⁻¹ s⁻¹
- kobs /[I]* (approximate second-order inactivation constant) (cruzain, from T. cruzi): 18,100 M^-1 sec^-1
- KI ([2]; corrected for substrate): binds
- k/KI (kirr/KI) ([2]; 25° C., pH 6.2): 0 M⁻¹ s⁻¹
- kirr (Cloned cathepsin S): 0.54 s⁻¹
- Ki (Cloned cathepsin S; corrected for substrate): 14 µM
- k/KI (kirr/KI) (Cloned cathepsin S; values without asterisk, 25° C., pH 6.5): 39,000 M^-1 sec^-1
- k/KI (kirr/KI) (calpain): 0 M⁻¹ s⁻¹

Compound: CC(=O)N[C@@H](CC(C)C)C(=O)N[C@@H](CC(C)C)C(=O)N[C@H](/C=C/S(=O)(=O)c1ccccc1)CCS(C)(=O)=O [Ac-Leu-Leu-Met(O2)VSPh, (S)-(E)-3-(acetylleucylleucyl)amino-5-methylsulfonyl-1-phenylsulfonyl-1-pentene]
- k/KI (kirr/KI) ([1]; 25° C., pH 6.2): 1,500,000 M^-1 sec^-1
- k/KI (kirr/KI) (cruzain, from T. cruzi): 104,000 M^-1 sec^-1
- kobs /[I]* (calpain): 8,400 M^-1 sec^-1

Compound: CSCC[C@@H](/C=C/S(=O)(=O)c1ccccc1)NC(=O)[C@H](CC(C)C)NC(=O)[C@H](CC(C)C)NC(C)=O [Ac-Leu-Leu-MetVSPh, (S)-(E)-3-(acetylleucylleucyl)amino-1-phenylsulfonyl-6-thia-1-heptene]
- k/KI (kirr/KI) ([1]; 25° C., pH 6.2): 880,000 M^-1 sec^-1
- k/KI (kirr/KI) (cruzain, from T. cruzi): 110,000 M^-1 sec^-1
- k/KI (kirr/KI) ([2]; 25° C., pH 6.2): 0 M⁻¹ s⁻¹
- kobs /[I]* (calpain): 5,600 M^-1 sec^-1
